Laboratory results: publication PMC3574217 (Journal of medicinal chemistry, 2013)

Tests used:
[1] = test system: aorta ring preparations; conditions: cited from earlier work
[2] = 24 h
[3] = test system: adult WT murine cardiac ventricular myocytes; test: Contractile response; format: cell-based, mouse; conditions: vs control basal condition, P<0.05
[4] = test system: cardiac P2X4R; conditions: cardiomyocytes obtained from the CSQ mouse; cited from earlier work
[5] = test system: CSQ-overexpressing mice with heart failure; conditions: chronic administration; cited from earlier work
[6] = test system: LAD ligation model of ischemic heart failure in mice; test: LAD ligation ischemic heart failure model, echocardiography-derived FS; format: in vivo, mouse; conditions: infusion 28 days
[7] = test system: LAD ligation model of ischemic heart failure in mice; test: Ex vivo isolated working heart preparation; format: in vivo, mouse; conditions: infusion 28 days
[8] = test system: CSQ-overexpressing mice with heart failure; test: CSQ-overexpressing mouse model of heart failure; format: in vivo
[9] = Stability in rat liver microsomes; conditions: 24 h, 37°C
[10] = Stability in rat plasma; conditions: 24 h, 37°C

Row | SMILES | protection in the LAD model (increase in FS), in words [6] | protection in ex vivo working heart (+dP/dt), in words [7] | cardioprotection in CSQ model, in words ([8]; infusion) | other results
1 | Nc1nc(Cl)nc2c1ncn2[C@H]1[C@H](O)[C@H](O)[C@@]2(COP(=O)(O)O)C[C@@H]12 [Compound 1, (1’S,2’R,3’S,4’R,5’S)-4-(6-amino-2-chloro-9H-purin-9-yl)-1-[phosphoryloxy-methyl]bicyclo[3.1.0]hexane-2,3-diol] | – | – | – | vasodilator action [1]: devoid of any vasodilator action; stability to acidic conditions ([2]; pH 1.5, 37°C, data not shown): stable; contraction shortening (CS) [3]: modest increase in contraction shortening; P2X-like current in cardiomyocytes [4]: induced a current that is characteristic of the action of the cardiac P2X4R; cardioprotection in CSQ mouse model [5]: rescued the hypertrophic and heart failure phenotype
2 | Nc1nc(Cl)nc2c1ncn2[C@H]1[C@H](O)[C@H](O)[C@]2(CCP(=O)(O)O)C[C@H]12 [Compound 3, (1’S,2’R,3’S,4’R,5’S)-4’-(6-amino-2-chloropurin-9-yl)-2’,3’-(dihydroxy)-1’-(phosphonoethylene)-bicyclo[3.1.0]hexane] | – | – | – | contraction shortening (CS) [3]: modest increase in contraction shortening; cardioprotection in CSQ mouse model [5]: protective
3 | [2H]C([2H])(OP(=O)(O)O)[C@@]12C[C@@H]1[C@@H](n1cnc3c(N)nc(Cl)nc31)[C@H](O)[C@@H]2O [Compound 4, (1’S,2’R,3’S,4’R,5’S)-4-(6-Amino-2-chloro-9H-purin-9-yl)-1-[phosphoryloxydideuteromethyl]-2,3-diol-bicyclo[3.1.0]hexane] | significantly protective | – | – | –
4 | Nc1nc(Cl)nc2c1ncn2[C@H]1[C@H](O)[C@H](O)[C@]2(CSP(=O)(O)O)C[C@H]12 [Compound 5, (1’S,2’R,3’S,4’R,5’S)-4-(6-Amino-2-chloro-purin-9-yl)-2,3-(dihydroxy)-1-[monophosporothioate]-bicyclo-[3.1.0]hexane] | – | able to improve function | could protect | –
5 | Nc1nc(I)nc2c1ncn2[C@H]1[C@H](O)[C@H](O)[C@]2(CP(=O)(O)O)C[C@H]12 [Compound 6, (1’S,2’R,3’S,4’R,5’S)-4’-(6-Amino-2-iodoropurin-9-yl)-2’,3’-(dihydroxy)-1’-(phosphonomethylene)-bicyclo[3.1.0]hexane] | – | able to improve function | abolished protection | effect on FS in CSQ mice ([8]; infusion, compared to vehicle): did not improve FS; LV wall thickness in CSQ mice, in words ([8]; vs NS-infused CSQ mice): did not improve FS (Table S2) or prevent LV wall thinning
6 | CCOP(=O)(OCC)OC[C@@]12C[C@@H]1[C@@H](n1cnc3c(N)nc(Cl)nc31)[C@H](O)[C@@H]2O [Compound 7, (1’S,2’R,3’S,4’R,5’S)-4-(6-Amino-2-chloro-9H-purin-9-yl)-1-[(diethylphosphate)methyl]-2,3-(dihydroxy)-bicyclo[3.1.0]hexane] | highly protective | able to improve function | cardioprotective activity was seen | –
7 | CC(C)OP(=O)(OC[C@@]12C[C@@H]1[C@@H](n1cnc3c(N)nc(Cl)nc31)[C@H](O)[C@@H]2O)OC(C)C [Compound 8, (1’S,2’R,3’S,4’R,5’S)-4-(6-Amino-2-chloro-9H-purin-9-yl)-1-[(diisopropylphosphate)methyl]-2,3-(dihydroxy)-bicyclo[3.1.0]hexane] | highly protective | – | – | –
8 | CC(C)(C)OP(=O)(OC[C@@]12C[C@@H]1[C@@H](n1cnc3c(N)nc(Cl)nc31)[C@H](O)[C@@H]2O)OC(C)(C)C [Compound 9, (1’S,2’R,3’S,4’R,5’S)-4-(6-Amino-2-chloro-9H-purin-9-yl)-2,3-(dihydroxy)-1-[(t-butylphosphate)methyl]-bicyclo[3.1.0]hexane] | – | able to improve function | – | –
9 | [2H]C([2H])(OP(=O)(OCC)OCC)[C@@]12C[C@@H]1[C@@H](n1cnc3c(N)nc(Cl)nc31)[C@H](O)[C@@H]2O [Compound 10, (1’S,2’R,3’S,4’R,5’S)-4-(6-Amino-2-chloro-9H-purin-9-yl)-2,3-(dihydroxyl)-1-[(di-ethylphosphate)dideuteromethyl]bicyclo[3.1.0]hexane] | did not fully protect | – | – | –
10 | CCOP(=O)(OCC)SC[C@@]12C[C@@H]1[C@@H](n1cnc3c(N)nc(Cl)nc31)[C@H](O)[C@@H]2O [Compound 11, (1’S,2’R,3’S,4’R,5’S)-4-(6-Amino-2-chloro-purin-9-yl)-1-[O,O-diethyl S-methyl phosphorothioate]-2,3-(dihydroxyl)-bicyclo-[3.1.0]hexane] | protective | – | – | –
11 | CCOP(=S)(OCC)SC[C@@]12C[C@@H]1[C@@H](n1cnc3c(N)nc(Cl)nc31)[C@H](O)[C@@H]2O [Compound 13, (1’S,2’R,3’S,4’R,5’S)-4-(6-Amino-2-chloro-purin-9-yl)-1-[O,O-diethyl S-methyl phosphorodithioate]-2,3-(dihydroxyl)-bicyclo-[3.1.0]hexane] | protective | – | – | –
12 | CCOP(=O)(C[C@@]12C[C@@H]1[C@@H](n1cnc3c(N)nc(Cl)nc31)[C@H](O)[C@@H]2O)OCC [Compound 14, Diethyl-(1’S,2’R,3’S,4’R,5’S)-4’-(6-amino-2-chloropurin-9-yl)-2’,3’-(hydroxy)-bicyclo[3.1.0]hexane phosphonate] | – | did not protect | inactive | stability in the presence of microsomes from rat liver [9]: unable to demonstrate any hydrolysis; stability in aqueous medium at pH 1 ([2]; 50°C): unable to demonstrate any hydrolysis; stability in aqueous medium at pH 11 ([2]; 50°C): unable to demonstrate any hydrolysis; stability in the presence of rat plasma [10]: stable
